US20220047598A1, “Use of Casein Kinase 1 Inhibitors For Treating Vascular Diseases” (Qanatpharma AG, priority 2018, published 2022)
“Also recorded” adds a separate entry of the source. One block for each molecule: values may come before it.

What was measured:
[1] = tested on: mouse cremaster skeletal muscle resistance arteries; assay: Phenylephrine (agonist)-induced vasoconstriction in isolated cremaster resistance arteries; settings: for phenylephrine-induced vasoconstriction (vessel health): wild-type arteries treated in vitro
[2] = tested on: cremaster skeletal muscle resistance arteries; assay: In vivo treatment of naive mice, then pressure myography of cremaster arteries; parameters: species or system mouse; settings: for myogenic responsiveness: naive mice, 24 hrs later, ZT7
Description: Referring to FIG. 6d to f, naive mice were treated with PF-670462 (30-50 mg/kg dissolved in 200 μL water, intraperitoneal injection) or vehicle (200 μL water). 24 hrs later, in mid-rest phase (ZT7), cremaster skeletal muscle resistance arteries underwent pressure myography. […] (FIG. 6e) Phenylephrine-induced vasoconstriction is not altered by in vivo application of PF-670462.

[3] = tested on: mTNF reverse signaling (ERK1/2 phosphorylation) in mesenteric vascular smooth muscle cells; assay: ERK1/2 phosphorylation by western blot in microvascular smooth muscle cells cultured from mouse mesenteric arteries; assay type: cell-based; settings: for sTNFR1-Fc-induced ERK1/2 phosphorylation: microvascular smooth muscle cells, inhibitor concentration not given
Description: (§1) Referring to FIG. 1, microvascular smooth muscle cells were cultured form mouse mesenteric arteries and ERK1/2 phosphorylation was assessed by standard western blotting. Murine cremaster skeletal muscle resistance arteries were assessed by pressure myography. mTNF reverse signaling was induced by the intrinsically active TNF type I receptor construct, sTNFR1-Fc.
These findings were verified in cremaster skeletal muscle resistance arteries. […] Importantly, none of the above treatments affected agonist-induced vasoconstriction.
(§2) Referring to FIG. 3, mouse cremaster skeletal muscle resistance arteries were isolated and cannulated for pressure myography. Stepwise increases in transmural pressure (20-100 mmHg in 20 mmHg steps) elicit myogenic vasoconstriction. […] (FIG. 3d) CKI-7 is not effective in the absence of TNF signaling (i.e., TNF knockout arteries, TNF KO). (FIG. 3e) Phenylephrine-induced vasoconstriction in TNF KO arteries is not affected by CKI-7.

[4] = tested on: mouse cremaster skeletal muscle resistance arteries; assay: Pressure myography of isolated cremaster skeletal muscle resistance arteries: myogenic responsiveness, compound applied in vitro; settings: for dose dependence of reduction in myogenic responsiveness: dose-response in vitro, n=4-6 vessels per dose
Description: as §1
Referring to FIG. 3, mouse cremaster skeletal muscle resistance arteries were isolated and cannulated for pressure myography. Stepwise increases in transmural pressure (20-100 mmHg in 20 mmHg steps) elicit myogenic vasoconstriction.
Referring to FIG. 4, mouse cremaster skeletal muscle resistance arteries were isolated and cannulated for pressure myography. Stepwise increases in transmural pressure (20-100 mmHg in 20 mmHg steps) elicit myogenic vasoconstriction.
(§3) Referring to FIG. 5, mouse cremaster skeletal muscle resistance arteries were isolated at mid-rest phase (ZT7) or mid-active phase (ZT19) and cannulated for pressure myography. One-step increases in transmural pressure (60 to 100 mmHg) elicit myogenic vasoconstriction. […] (FIG. 5c) Cremaster muscle resistance arteries underwent pressure myography and western blotting subsequently assessed ERK1/2 phosphorylation. […] (FIG. 5d) Representative western blot.
Referring to FIG. 6a to c, mice underwent myocardial infarction (ligation of the left-anterior descending coronary artery) or sham surgery. […] Cremaster skeletal muscle resistance arteries were isolated and cannulated for pressure myography.

[5] = tested on: CK1D/E; settings: read-out: published IC50; cited from earlier work
[6] = tested on: heart failure (myocardial infarction) mice; assay: Chronic treatment of mice after myocardial infarction (heart failure) or sham surgery; assay type: in vivo, mouse; settings: 7 wks
Description: Referring to FIG. 6g to j, following myocardial infarction or sham surgery, mice were chronically treated with PF-670462 (30 mg/kg, intraperitoneal injection) or vehicle (DMSO) for 7 wks (5 days/wk). […] (FIG. 6h) HF-induced elevations in myogenic tone are normalized by chronic treatment with PF-670462. (FIG. 6i)
Phenylephrine-induced vasoconstriction is intact with chronic PF-670462 treatment. Reduced tone at lower concentrations of phenylephrine in the PF-670462-treated group is the result of changes in resting myogenic tone. (FIG. 6j) Cardiac output, the quantification of blood outflow from the heart assessed with echocardiography, is elevated with chronic PF-670462 treatment.

[7] = Mean arterial blood pressure after acute injection; assay type: in vivo, mouse; settings: acute injection 30 mg/kg intraperitoneal, n=3 per group
[8] = tested on: ERK1/2 phosphorylation in cremaster resistance arteries; assay: ERK1/2 phosphorylation by western blot in isolated cremaster resistance arteries after pressure myography; parameters: species or system mouse
Description: as §2
as §3, with “blot. (FIG. 5e) Resting diameter of the vessels is not affected by PF-670462. (FIG. 5f) Prior to administration of PF-670462, vessel health is intact as shown by robust vasoconstriction to phenylephrine. […] (FIG. 5h) Vessel health, indicated by robust phenylephrine-induced vasoconstriction, is not affected by PF-670462 administration.” for “blot.”

[9] = tested on: skeletal muscle resistance arteries; settings: scavenging TNF; cited from earlier work
[10] = scavenging TNF; cited from earlier work
[11] = tested on: mTNF reverse signaling in human embryonic kidney (HEK) cells; assay: mTNF reverse signaling (ERK1/2 phosphorylation) in transfected HEK cells stimulated with TNF antibody; assay type: cell-based; settings: HEK cells transfected 24 hrs, stimulated 5 min
Description: Importantly, the cytoplasmic tail of mTNF contains the casein kinase 1 (CK1) recognition site (S(P)-X-X-S) that is removed in Trunc TNF, indicating the necessity for CK1 binding in mTNF reverse signaling.

[12] = tested on: mTNF reverse signaling in cremaster skeletal muscle resistance arteries; assay: sTNFR1-Fc-stimulated vasoconstriction / mTNF reverse signaling in cremaster resistance arteries; parameters: species or system mouse
Description: as §1, §2

[13] = in vitro application, concentration not given
[14] = chronic treatment 30 mg/kg intraperitoneal

Molecule: Nc1nccc(-c2c(-c3ccc(F)cc3)ncn2C2CCCCC2)n1 [PF-670462]
phenylephrine-induced vasoconstriction ([1]; arteries from HF and sham mice, 550 nM in vitro): intact
phenylephrine-induced vasoconstriction (vessel health) [1]: intact; also recorded: not affected
myogenic responsiveness ([2]; 30 mg/kg intraperitoneal): reduce myogenic responsiveness
myogenic responsiveness ([2]; 50 mg/kg intraperitoneal): reduce myogenic responsiveness
myogenic responsiveness in isolated cremaster arteries ([2]; applied in vivo, dose not given): reduced myogenic responsiveness
phenylephrine-induced vasoconstriction ([2]; in vivo application 30-50 mg/kg intraperitoneal): not altered
sTNFR1-Fc-induced ERK1/2 phosphorylation [3]: abolished
myogenic responsiveness ([4]; 550 nM in vitro): reduces myogenic responsiveness
myogenic responsiveness in arteries from HF mice ([4]; 550 nM in vitro in bath, 8 weeks post myocardial infarction): normalizes myogenic responsiveness
myogenic tone in sham-operated mice ([4]; 550 nM in vitro in bath, sham arteries): does not affect myogenic tone
myogenic tone in arteries from HF and sham mice ([4]; 550 nM in vitro, 30 minutes, both HF and sham groups): attenuated to same level
reversibility of the reduction in myogenic responsiveness ([4]; 550 nM in vitro, repeated replacements of the incubating buffer): reversible
myogenic responsiveness at mid-rest phase ([4]; 10 μM in vitro, ZT7, one-step pressure 60 to 100 mmHg): reduces myogenic responsiveness only during the rest phase (ZT7)
myogenic responsiveness at mid-active phase ([4]; 10 μM in vitro, ZT19, one-step pressure 60 to 100 mmHg): not during the active phase (ZT19)
dose dependence of reduction in myogenic tone at mid-rest phase ([4]; ZT7, n=4-7 vessels per dose): dose-dependently reduces myogenic tone
resting diameter of the vessels ([4]; ZT7/ZT19 arteries): not affected
vessel dilation ([4]; ZT7/ZT19 arteries, before pressure stimulation): not affected
dose dependence of reduction in myogenic responsiveness [4]: dose-dependent decreases
myogenic responsiveness [4, 13]: reduces myogenic responsiveness
myogenic responsiveness in wild-type arteries ([4]; wild-type (WT) arteries, compared with TNF knockout): inhibits myogenic responsiveness
IC50 [5]: 7.7 to 14 nM
HF-induced elevations in myogenic tone ([6]; 30 mg/kg intraperitoneal, 5 days/wk): normalized
cardiac output (echocardiography) [6, 14]: elevated
phenylephrine-induced vasoconstriction [6, 14]: intact
mean arterial blood pressure (MAP) [7]: reduces mean arterial blood pressure
ERK1/2 phosphorylation, ZT7 versus ZT19 ([8]; cremaster arteries isolated at ZT7 or ZT19): reduces ERK1/2 phosphorylation to a greater extent during the rest phase (ZT7)

Molecule: Etanercept
skeletal muscle resistance artery myogenic responsiveness [9]: attenuates skeletal muscle resistance artery myogenic responsiveness
systemic blood pressure [10]: reduces systemic blood pressure

concentration inhibiting myogenic responses relative to the IC50 ([4]; fold greater than the IC50): ~1000 ×
Molecule: Nc1ncnc2c1c(COc1cccc(Cl)c1)nn2C1CCOCC1 [PF-4800567]
reduction in phenylephrine-induced vasoconstriction after correction to baseline tone ([1]; 30 μM dose, corrected to baseline tone): remains after correction to baseline tone
phenylephrine-induced vasoconstriction ([1]; arteries treated at the 30 μM dose): reduced
myogenic responsiveness ([4]; 30 μM in vitro): abrogates myogenic responsiveness
dose dependence of reduction in myogenic responsiveness [4]: dose-dependent reduction

Molecule: Adalimumab
mTNF reverse signaling (ERK1/2 phosphorylation) [11]: not stimulated unless the HEK cells express a tumour necrosis factor (TNF) plasmid construct

Molecule: NCCNS(=O)(=O)c1ccc(Cl)c2ccncc12 [CKI-7]
phenylephrine-induced vasoconstriction in TNF KO arteries ([1]; TNF KO arteries): not affected
phenylephrine-induced vasoconstriction (vessel health) [1]: remains intact
ERK1/2 phosphorylation in response to sTNFRI-Fc ([3]; mesenteric vascular smooth muscle cells, inhibitor 1 μM): inhibited
sTNFR1-Fc-induced ERK1/2 phosphorylation [3]: abolished
myogenic responsiveness ([4]; 10 μM in vitro, transmural pressure 20-100 mmHg in 20 mmHg steps): reduces myogenic responsiveness
myogenic responsiveness in TNF knockout arteries ([4]; TNF−/− (TNF KO) arteries, in vitro): not effective
dose dependence of reduction in myogenic responsiveness [4]: dose-dependent reductions
myogenic responsiveness [4, 13]: reduces myogenic responsiveness
sTNFR1-Fc-stimulated ERK1/2 phosphorylation ([8]; isolated cremaster resistance arteries after pressure myography): inhibited
sTNFR1-Fc-induced mTNF reverse signaling ([12]; cremaster arteries, in vitro application): abrogates
sTNFR1-Fc-stimulated vasoconstriction ([12]; sTNFR1-Fc 100 ng/mL): prevented
